System: LNCaP C4-2
Assay: Inhibition of HIF1-alpha production in c4-2 cells at 20 nM after 24 hrs relative to control
Assay type: functional
Details: Homo sapiens, LNCaP C4-2, 24 h

SMILES	inhibition at 0.02 µM [%]
CO[C@H]1C[C@@H]2CC[C@@H](C)[C@@](O)(O2)C(=O)C(=O)N2CCCC[C@H]2C(=O)O[C@H]([C@H](C)C[C@@H]2CC[C@@H](O)[C@H](OC)C2)CC(=O)[C@H](C)/C=C(\C)[C@@H](O)[C@@H](OC)C(=O)[C@H](C)C[C@H](C)/C=C/C=C/C=C/1C [SIROLIMUS]	35

System: LNCaP C4-2
Assay: Inhibition of HIF1alpha production in c4-2 cells at 10 uM after 24 hrs relative to control
Assay type: functional
Details: Homo sapiens, LNCaP C4-2, 24 h

SMILES	inhibition at 10 µM [%]
CC[C@@]1(O)C(=O)OCc2c1c(NCCF)c1n(c2=O)Cc2cc3ccccc3nc2-1	88
CC[C@@]1(O)C(=O)OCc2c1cc1n(c2=O)Cc2cc3c(CN(C)C)c(O)ccc3nc2-1 [TOPOTECAN]	69
CCCNc1c2c(c(=O)n3c1-c1nc4ccccc4cc1C3)COC(=O)[C@]2(O)CC	76
CC[C@@]1(O)C(=O)OCc2c1c(NCc1ccc(OC)cc1)c1n(c2=O)Cc2cc3ccccc3nc2-1	9
CC[C@@]1(O)C(=O)OCc2c1c(NCc1cccc(F)c1)c1n(c2=O)Cc2cc3ccccc3nc2-1	0
CC[C@@]1(O)C(=O)OCc2c1cc1n(c2=O)Cc2cc3ccccc3nc2-1 [CAMPTOTHECIN]	69
CC[C@@]1(O)C(=O)OCc2c1c(NCc1ccc(F)cc1)c1n(c2=O)Cc2cc3ccccc3nc2-1	40

Source: ChEMBL document CHEMBL1139736, “Microwave expedited synthesis of 5-aminocamptothecin analogs: Inhibitors of hypoxia inducible factor HIF-1alpha” (2006)
